Assay results as given in patent US8461107B2 (Merck Sharp & Dohme Corp., priority 2008, dated 2013).

Biological target: T1, HCV genotype 1b (BK) NS3 modified with a R155K mutation (Hepatitis C virus genotype 1b, UniProt P26663, R1181K)
T1 construct: HCV genotype 1b (BK) NS3 modified with a R155K mutation
Experiment: HCV NS3 protease time-resolved fluorescence (TRF) assay, NS3 protease 1b R155K Ki activity
Assay type: biochemical
Settings: HCV genotype 1b (BK) NS3 with R155K mutation; TRF peptide substrate 100 nM; Ki derived from IC50
Procedure: The HCV NS3 protease inhibitory activity of the present compounds may be tested using assays known in the art. One such assay is HCV NS3 protease time-resolved fluorescence (TRF) assay as described below and in International Patent Application Publication WO 2006/102087. Other examples of such assays are described in e.g., International Patent Application Publication WO 2005/046712.
A NS3 protease assay can be performed, for example, in a final volume of 100 μl assay buffer containing 50 mM HEPES, pH 7.5, 150 mM NaCl, 15% glycerol, 0.15% TRITON X-100, 10 mM DTT, and 0.1% PEG 8000. NS3 and NS4A protease is pre-incubated with various concentrations of inhibitors in DMSO for 30 minutes. The reaction is initiated by adding the TRF peptide substrate (final concentration 100 nM). NS3 mediated hydrolysis of the substrate is quenched after 1 hour at room temperature with 100 μl of 500 mM MES, pH 5.5. Product fluorescence is detected using either a VICTOR V2 or FUSION fluorophotometer (Perkin Elmer Life and Analytical Sciences) with excitation at 340 nm and emission at 615 nm with a 400 μs delay. Testing concentrations of different enzyme forms are selected to result in a signal to background ratio (S/B) of 10-30. IC50 values are derived using a standard four-parameter fit to the data. Ki values are derived from IC50 values using the following formula, IC50=Ki(1+[S]/KM), Eqn (1), where [S] is the concentration of substrate peptide in the reaction and KM is the Michaelis constant. See P. Gallinari et al., 38 BIOCHEM. 5620-32 (1999); P. Gallinari et al., 72 J. VIROL. 6758-69 (1998); M. Taliani et al., 240 ANAL. BIOCHEM. 60-67 (1996).
The HCV NS3 protease inhibitory activity was measured using the protease time-resolved fluorescence (TRF) assay as described below and in International Patent Application Publication WO 2006/102087. The assay was performed with HCV genotype 1b (BK) NS3 modified with a R155K mutation.
The assay was performed in a final volume of 100 μl in assay buffer containing 50 mM HEPES, pH 7.5, 150 mM NaCl, 15% glycerol, 0.15% TRITON X-100, 10 mM DTT, and 0.1% PEG 8000. NS3 and NS4A protease is pre-incubated with various concentrations of inhibitors in DMSO for 30 minutes. The reaction is initiated by adding the TRF peptide substrate (final concentration 100 nM). NS3 mediated hydrolysis of the substrate is quenched after 1 hour at room temperature with 100 μl of 500 mM MES, pH 5.5. Product fluorescence is detected using either a VICTOR V2 or FUSION fluorophotometer (Perkin Elmer Life and Analytical Sciences) with excitation at 340 nm and emission at 615 nm with a 400 μs delay. Testing concentrations of the enzyme containing the R155K mutation were selected to result in a signal to background ratio (S/B) of 10-30. IC50 values are derived using a standard four-parameter fit to the data. Ki values are derived from IC50 values using the following formula, IC50=Ki(1+[S]/KM), Eqn (1), where [S] is the concentration of substrate peptide in the reaction and KM is the Michaelis constant. See P. Gallinari et al., 38 BIOCHEM. 5620-32 (1999); P. Gallinari et al., 72 J. VIROL. 6758-69 (1998); M. Taliani et al., 240 ANAL. BIOCHEM. 60-67 (1996).

## C=C[C@@H]1C[C@]1(NC(=O)[C@@H]1C[C@@H]2CN1C(=O)[C@H](C1CCCC1)NC(=O)O[C@@H]1CCC[C@H]1CC/C=C/Cn1c(nc3cc(S(C)(=O)=O)ccc3c1=O)O2)C(=O)NS(=O)(=O)C1CC1 [(3aR,7S,10S,12R,22E,25aS)-7-cyclopentyl-N-((1R,2S)-1-{[(cyclopropylsulfonyl)amino]carbonyl}-2-vinylcyclopropyl)-16-(methylsulfonyl)-5,8,19-trioxo-1,2,3,3a,5,6,7,8,11,12,21,24,25,25a-tetradecahydro-10H,19H-9,12-methanocyclopenta[18,19][1,10,3,6,12]dioxatriazacyclononadecino[11,12-b]quinazoline-10-carboxamide]
  Ki: < 0.1 nM

## C=C[C@@H]1C[C@]1(NC(=O)[C@@H]1C[C@@H]2CN1C(=O)[C@H](C1CCCC1)NC(=O)O[C@@H]1CCC[C@H]1CC/C=C/Cn1c(nc3cc(OC)ccc3c1=O)O2)C(=O)NS(=O)(=O)C1CC1 [(3aR,7S,10S,12R,22E,25aS)-7-cyclopentyl-N-((1R,2S)-1-{[(cyclopropylsulfonyl)amino]carbonyl}-2-vinylcyclopropyl)-16-methoxy-5,8,19-trioxo-1,2,3,3a,5,6,7,8,11,12,21,24,25,25a-tetradecahydro-10H,19H-9,12-methanocyclopenta[18,19][1,10,3,6,12]dioxatriazacyclononadecino[11,12-b]quinazoline-10-carboxamide]
  Ki: < 0.1 nM

## C=C[C@@H]1C[C@]1(NC(=O)[C@@H]1C[C@@H]2CN1C(=O)[C@H](C1CCCC1)NC(=O)O[C@@H]1CCC[C@H]1CC/C=C/Cn1c(nc3cccc(OC)c3c1=O)O2)C(=O)NS(=O)(=O)C1CC1 [(3aR,7S,10S,12R,22E,25aS)-7-cyclopentyl-N-((1R,2S)-1-{[(cyclopropylsulfonyl)amino]carbonyl}-2-vinylcyclopropyl)-18-methoxy-5,8,19-trioxo-1,2,3,3a,5,6,7,8,11,12,21,24,25,25a-tetradecahydro-10H,19H-9,12-methanocyclopenta[18,19][1,10,3,6,12]dioxatriazacyclononadecino[11,12-b]quinazoline-10-carboxamide]
  Ki: < 0.1 nM

## CC[C@@H]1C[C@]1(NC(=O)[C@@H]1C[C@@H]2CN1C(=O)[C@H](C1CCCC1)NC(=O)O[C@@H]1CCC[C@H]1CC/C=C/Cn1c(nc3cc(Br)ccc3c1=O)O2)C(=O)NS(=O)(=O)C1CC1 [(3aR,7S,10S,12R,22E,25aS)-16-bromo-7-cyclopentyl-N-((1R,2R)-1-{[(cyclopropylsulfonyl)amino]carbonyl}-2-ethylcyclopropyl)-5,8,19-trioxo-1,2,3,3a,5,6,7,8,11,12,21,24,25,25a-tetradecahydro-10H,19H-9,12-methanocyclopenta[18,19][1,10,3,6,12]dioxatriazacyclononadecino[11,12-b]quinazoline-10-carboxamide]
  Ki: 0.1 to 0.5 nM

## CC[C@@H]1C[C@]1(NC(=O)[C@@H]1C[C@@H]2CN1C(=O)[C@H](C1CCCC1)NC(=O)O[C@@H]1CCC[C@H]1CC/C=C/Cn1c(nc3cc(Cl)ccc3c1=O)O2)C(=O)NS(=O)(=O)C1CC1 [(3aR,7S,10S,12R,22E,25aS)-16-chloro-7-cyclopentyl-N-((1R,2R)-1-{[(cyclopropylsulfonyl)amino]carbonyl}-2-ethylcyclopropyl)-5,8,19-trioxo-1,2,3,3a,5,6,7,8,11,12,21,24,25,25a-tetradecahydro-10H,19H-9,12-methanocyclopenta[18,19][1,10,3,6,12]dioxatriazacyclononadecino[11,12-b]quinazoline-10-carboxamide]
  Ki: 0.1 to 0.5 nM

## C=C[C@@H]1C[C@]1(NC(=O)[C@@H]1C[C@@H]2CN1C(=O)[C@H](C1CCCC1)NC(=O)O[C@@H]1CCC[C@H]1CC/C=C/Cn1c(nc3cc(Cl)ccc3c1=O)O2)C(=O)NS(=O)(=O)C1CC1 [(3aR,7S,10S,12R,22E,25aS)-16-chloro-7-cyclopentyl-N-((1R,2S)-1-{[(cyclopropylsulfonyl)amino]carbonyl}-2-vinylcyclopropyl)-5,8,19-trioxo-1,2,3,3a,5,6,7,8,11,12,21,24,25,25a-tetradecahydro-10H,19H-9,12-methanocyclopenta[18,19][1,10,3,6,12]dioxatriazacyclononadecino[11,12-b]quinazoline-10-carboxamide]
  Ki: < 0.1 nM

## CC[C@@H]1C[C@]1(NC(=O)[C@@H]1C[C@@H]2CN1C(=O)[C@H](C1CCCC1)NC(=O)O[C@@H]1CCC[C@H]1CC/C=C/Cn1c(nc3cc(C#N)ccc3c1=O)O2)C(=O)NS(=O)(=O)C1CC1 [(3aR,7S,10S,12R,22E,25aS)-16-cyano-7-cyclopentyl-N-((1R,2R)-1-{[(cyclopropylsulfonyl)amino]carbonyl}-2-ethylcyclopropyl)-5,8,19-trioxo-1,2,3,3a,5,6,7,8,11,12,21,24,25,25a-tetradecahydro-10H,19H-9,12-methanocyclopenta[18,19][1,10,3,6,12]dioxatriazacyclononadecino[11,12-b]quinazoline-10-carboxamide]
  Ki: 0.1 to 0.5 nM

## C=C[C@@H]1C[C@]1(NC(=O)[C@@H]1C[C@@H]2CN1C(=O)[C@H](C1CCCC1)NC(=O)O[C@@H]1CCC[C@H]1CCC/C=C/Cn1c(cc3ccccc3c1=O)O2)C(=O)NS(=O)(=O)C1CC1 [(3aR,7S,10S,12R,22E,26aR)-7-cyclopentyl-N-((1R,2S)-1-{[(cyclopropylsulfonyl)amino]carbonyl}-2-vinylcyclopropyl)-5,8,19-trioxo-2,3,3a,5,6,7,8,11,12,21,24,25,26,26a-tetradecahydro-1H,10H,19H-9,12-methanocyclopenta[19,20][1,10,3,6,12]dioxatriazacycloicosino[12,11-b]isoquinoline-10-carboxamide]
  Ki: 0.1 to 0.5 nM

## C=C[C@@H]1C[C@]1(NC(=O)[C@@H]1C[C@@H]2CN1C(=O)[C@H](C1CCCC1)NC(=O)O[C@@H]1CCC[C@H]1C/C=C/CCn1c(cc3cc(OC)ccc3c1=O)O2)C(=O)NS(=O)(=O)C1CC1 [(3aR,7S,10S,12R,23E,25aS)-7-cyclopentyl-N-((1R,2S)-1-{[(cyclopropylsulfonyl)amino]carbonyl}-2-vinylcyclopropyl)-16-methoxy-5,8,19-trioxo-1,2,3,3a,5,6,7,8,11,12,21,22,25,25a-tetradecahydro-10H,19H-9,12-methanocyclopenta[18,19][1,10,3,6,12]dioxatriazacyclononadecino[12,11-b]isoquinoline-10-carboxamide]
  Ki: < 0.1 nM

## C=C[C@@H]1C[C@]1(NC(=O)[C@@H]1C[C@@H]2CN1C(=O)[C@H](C1CCCC1)NC(=O)O[C@@H]1CCC[C@H]1C/C=C/CCn1c(cc3ccc(F)cc3c1=O)O2)C(=O)NS(=O)(=O)C1CC1 [(3aR,7S,10S,12R,23E,25aS)-7-cyclopentyl-N-((1R,2S)-1-{[(cyclopropylsulfonyl)amino]carbonyl}-2-vinylcyclopropyl)-17-fluoro-5,8,19-trioxo-1,2,3,3a,5,6,7,8,11,12,21,22,25,25a-tetradecahydro-10H,19H-9,12-methanocyclopenta[18,19][1,10,3,6,12]dioxatriazacyclononadecino[12,11-b]isoquinoline-10-carboxamide]
  Ki: 0.1 to 0.5 nM
